Assay results reported in patent publication EP1712231A2 (priority 1998, dated 2000).
Marks after values point to notes of the source that are not given here. One block for each molecule: values may come before it.

Columns and labels:
[1] = Table 1: tipranavir drug-drug interaction potential and routes of elimination of antiretrovirals; conditions: drug-drug interaction with tipranavir
[2] = Study 1: pharmacokinetic drug-drug interaction of tipranavir 1350 mg BID and ritonavir 500 mg BID, plasma levels by HPLC; format: in vivo, human; conditions: for CLPO / Cmin / Css: median (range)
Source text: Twelve subjects were Caucasian and two were of African descent. Ten subjects completed all aspects of the study. Pharmacokinetic analyses were based on the results obtained in these subjects. […] Detection was by UV absorbance at 260 nm. […] Ritonavir and the internal standard (IS) were extracted from human plasma by liquid-liquid extraction with an ethyl acetate mixture.

[3] = Example 4: pharmacokinetic drug-drug interaction of tipranavir SEDDS 1250 mg BID and ritonavir oral solution 200 mg BID; format: in vivo, human
[4] = Study 2: pharmacokinetic drug-drug interaction of tipranavir 600 or 900 mg BID and ritonavir 100-500 mg BID, plasma levels by HPLC; format: in vivo, human; conditions: for CLPO / Cmin / Css / AUC / Cmax / Tmax: median (range); for half-life / AUC / Cmax / Tmax: both sexes, human, plasma, oral; for half-life: harmonic mean (range), read-out: t½ (converted)
Description: Both groups received their assigned dose of tipranavir continuously throughout the study period. […] The pharmacokinetics of tipranavir when coadministered with ritonavir were evaluated and compared with baseline data, while the ritonavir data were compared to historical data. The study was conducted in 19 healthy volunteers (16 males and 3 females) with a mean age of 30 years (range, 19-52 years), height of 177.1 cm (range, 162.6-190.5 cm), and weight of 76.7 kg (range, 57.3-95.0 kg). Eighteen subjects were Caucasian […]. […] Pharmacokinetic analyses were based on those subjects completing the baseline evaluation and at least one period of concomitant drug administration. […] Detection was by UV absorbance at 260 nm. […] Ritonavir and the internal standard (IS) were extracted from human plasma by liquid-liquid extraction with an ethyl acetate mixture.

[5] = Ritonavir 500 mg BID + Tipranavir 1350 mg BID, n=10
[6] = Ritonavir 500 mg BID alone, steady state, n=10
[7] = ritonavir 500 mg BID + tipranavir 1350 mg BID vs ritonavir alone
[8] = Ritonavir Oral Solution 200mg BID + Tipranavir SEDDS SEC 1250mg BID, median (range), N=21
[9] = ritonavir 200 mg BID + tipranavir 1250 mg BID vs 500-mg twice-daily ritonavir alone
[10] = Ritonavir 500 mg BID + Tipranavir 600 mg BID, N=7
[11] = Ritonavir 500 mg BID + Tipranavir 900 mg BID, N=6
[12] = ritonavir 500 mg BID + tipranavir 600 or 900 mg BID vs ritonavir alone

SMILES: Nc1nc(NC2CC2)c2ncn([C@H]3C=C[C@@H](CO)C3)c2n1 [Abacavir]
Potential for Clinically Significant Interaction [1]: Low

SMILES: Nc1ccn([C@H]2CC[C@@H](CO)O2)c(=O)n1 [ddC]
Potential for Clinically Significant Interaction [1]: Low

SMILES: O=C1Nc2ccc(Cl)cc2[C@@](C#CC2CC2)(C(F)(F)F)O1 [Efavirenz]
Potential for Clinically Significant Interaction [1]: Uncertain (Efavirenz is a possible CYP3A inducer)

SMILES: Cc1ccnc2c1NC(=O)c1cccnc1N2C1CC1 [Nevirapine]
Potential for Clinically Significant Interaction [1]: Uncertain

SMILES: C[C@H](Sc1nc(N)cc(Cl)n1)c1cc2ccoc2cn1 [PNU-142721]
Potential for Clinically Significant Interaction [1]: Uncertain

SMILES: Cc1cn([C@H]2C[C@H](N=[N+]=[N-])[C@@H](CO)O2)c(=O)[nH]c1=O [AZT, zidovudine]
Potential for Clinically Significant Interaction [1]: Low

SMILES: O=c1[nH]cnc2c1ncn2[C@H]1CC[C@@H](CO)O1 [ddI]
Potential for Clinically Significant Interaction [1]: Low

Now from value to molecule, other results behind:

Potential for Clinically Significant Interaction [1]: High (and unfavorable)
SMILES: Cc1c(O)cccc1C(=O)N[C@@H](CSc1ccccc1)[C@H](O)CN1C[C@H]2CCCC[C@H]2C[C@H]1C(=O)NC(C)(C)C [Nelfinavir]

Potential for Clinically Significant Interaction [1]: High (and unfavorable)
SMILES: CC(C)(C)NC(=O)[C@@H]1CN(Cc2cccnc2)CCN1C[C@@H](O)C[C@@H](Cc1ccccc1)C(=O)N[C@H]1c2ccccc2C[C@H]1O [Indinavir]

CLPO [2, 5]: 26 (17-61) L/h
Cmin [2, 5]: 0.10 (0.04-0.29) µg/mL
Css [2, 5]: 1.6 (0.69-2.50) µg/mL
t½ ([2]; Ritonavir 500 mg BID alone, harmonic mean (range), n=10): 2.9 (2.6-4.4) h
CLPO [2, 6]: 5.1 (3.9-7.8) L/h
Cmin [2, 6]: 1.9 (1.0-3.9) µg/mL
Css [2, 6]: 8.4 (5.3-10.7) µg/mL
half-life ([2]; both sexes, human, plasma, oral, 500 mg, read-out: t½ (converted)): 2.9 h
decrease in mean steady-state ritonavir concentrations [2, 7]: ~5 fold
decrease of median ritonavir Cmax value [2, 7]: 3.8 fold
median ritonavir Cmin concentration, fold lower [2, 7]: more than 10 fold
CLPO [3, 8]: 25.1 (8.4-73.1)* L/h
Cmin [3, 8]: 0.035 (0.000-0.341)* µg/mL
Css [3, 8]: 0.67 (0.23-1.99)* µg/mL
apparent elimination half-life of ritonavir relative to ritonavir given alone ([3]; ritonavir 200 mg BID + tipranavir 1250 mg BID): decreased
median ritonavir AUC, fold lower [3, 9]: 12 fold
median ritonavir Cmax, fold lower [3, 9]: 10 fold
median ritonavir Cmin, fold lower [3, 9]: 54 fold
CLPO [4, 10]: 19 (11-31) L/h
Cmin [4, 10]: 0.15 (0.08-0.53) µg/mL
Css [4, 10]: 2.3 (1.4-3.7) µg/mL
CLPO [4, 11]: 19 (12-27) L/h
Cmin [4, 11]: 0.15 (0.09-0.62) µg/mL
Css [4, 11]: 1.9 (1.6-3.4) µg/mL
half-life [4, 10]: 1.8 h
AUC [4, 10]: 27000 ng·h/mL
Cmax [4, 10]: 7000 ng/mL
Tmax [4, 10]: 3 h
half-life [4, 11]: 1.8 h
AUC [4, 11]: 26000 ng·h/mL
Cmax [4, 11]: 5800 ng/mL
Tmax [4, 11]: 3 h
decrease in steady-state plasma ritonavir concentrations [4, 12]: ~4 fold
median ritonavir Cmax values, fold lower [4, 12]: more than 2 fold
median ritonavir Cmin values, fold lower [4, 12]: more than 10 fold
SMILES: CC(C)c1nc(CN(C)C(=O)N[C@H](C(=O)N[C@@H](Cc2ccccc2)C[C@H](O)[C@H](Cc2ccccc2)NC(=O)OCc2cncs2)C(C)C)cs1 [Ritonavir, (2S,3S,5S)-5(N-(N-((N-Methyl-N-((2-isopropyl-4-thiazoly)methyl)amino)carbonyl)-L-valinyl)amino)-2-(N-((5-thiazoly)methoxycarbonyl)amino)-1,6-diphenyl-3-hydroxhexane, reference compound]
Potential for Clinically Significant Interaction [1]: High (possibly favorable) (Ritonavir increases trough tipranavir concentrations; tipranavir expected to reduce ritonavir concentrations

Potential for Clinically Significant Interaction [1]: High (and unfavorable)
SMILES: CC(C)CN(C[C@@H](O)[C@H](Cc1ccccc1)NC(=O)O[C@H]1CCOC1)S(=O)(=O)c1ccc(N)cc1 [Amprenavir]
